This assay relates to Mycobacterium tuberculosis variant bovis. Put plainly: Antimycobacterial activity against Mycobacterium bovis. It is filed as functional, organism-based.

Consider `C/C=C(/C)C(=O)O[C@@H]1C[C@H]2C(=C1C)[C@@H]1OC(=O)[C@@](C)(O)[C@@]1(O)[C@@H](OC(=O)CCCCn1cc([C@]3(O)CC[C@H]4[C@@H]5CCc6cc(OC)ccc6[C@H]5CC[C@@]43C)nn1)C[C@]2(C)OC(C)=O`, for which it took 10.6 µM to reach half-maximal inhibition (IC50).

Consider `C/C=C(\C)C(=O)O[C@@H]1C[C@H]2C(=C1C)[C@@H]1OC(=O)[C@@](C)(O)[C@@]1(O)[C@@H](OC(=O)[C@H](C)CC)C[C@@]2(C)OC(C)=O`, for which the 50% inhibitory concentration (IC50) – broadly, the concentration that gives 50% inhibition – amounted to 27.3 µM.

The record behind these values is ChEMBL document CHEMBL4402560, “Sarco/Endoplasmic Reticulum Calcium ATPase Inhibitors: Beyond Anticancer Perspective” (J Med Chem, 2020).
